Where two headings read alike, the source gives them in different places. Where no end group is shown, it is not given here.
Key:
E. coli 25922 = assay type: cell-based, Escherichia coli
Method: (§1) The antimicrobial activities of the peptides were measured using a method adapted from the National Committee for Clinical Laboratory Standards (NCCLS) with some modifications ([Chou et al., 2016]). The specific procedure for these assays has been previously described. In brief, the bacterial cells were grown to a mid-logarithmic phase and diluted in MHB to an ultimate concentration of 0.5–1 × 10^6 CFU mL^–1. Subsequently, the peptides were consecutively diluted in a 0.2% BSA solution and then added to a bacterial solution in a 96-well plate at identical volumes. After incubation for 24 h at 37°C, the MICs were determined to be the lowest peptide concentration that inhibited 95% of the bacterial growth by monitoring the absorbance at 492 nm using a microplate reader. Subsequently, 50 μL of each incubation mixture was further transferred to agar plates and incubated overnight. The minimum bactericidal concentrations (MBCs) were determined as the lowest peptide concentration that killed greater than 99.9% of the bacterial cells. Every assay was reproduced more than 3 times.

E. coli O78 = assay type: cell-based, Escherichia coli
Method: as §1

E. coli UB1005 = assay type: cell-based, Escherichia coli
Method: as §1

S. typhimurium 14028 = assay type: cell-based, Salmonella typhimurium
Method: as §1

S. typhimurium 7731 = assay type: cell-based, Salmonella typhimurium
Method: as §1

S. pullorum 7913 = assay type: cell-based, Salmonella pullorum
Method: as §1

P. aeruginosa 27853 = assay type: cell-based, Pseudomonas aeruginosa
Method: as §1

E. coli K88 = test system: E. coli K88
Method: as §1, with “The minimum bactericidal concentrations (MBCs) were determined as the lowest peptide concentration that killed greater than 99.9% of the bacterial cells.” left out

E. coli K99 = test system: E. coli K99
Method: as §1, with “The minimum bactericidal concentrations (MBCs) were determined as the lowest peptide concentration that killed greater than 99.9% of the bacterial cells.” left out

Gram-negative bacteria [1] = test system: Gram-negative bacteria
Method: (§2) The antimicrobial activity of AMPs is the most decisive index for evaluating the clinical application of antimicrobial drugs.
as §1, with “The minimum bactericidal concentrations (MBCs) were determined as the lowest peptide concentration that killed greater than 99.9% of the bacterial cells.” left out

Gram-positive bacteria [2] = test system: Gram-positive bacteria
Method: as §2
as §1, with “The minimum bactericidal concentrations (MBCs) were determined as the lowest peptide concentration that killed greater than 99.9% of the bacterial cells.” left out

S. aureus 25923 = assay type: cell-based, Staphylococcus aureus
Method: as §1

S. aureus 29213 [3] = assay type: cell-based, Staphylococcus aureus
Method: as §1

S. epidermidis 12228 = assay type: cell-based, Staphylococcus epidermidis
Method: as §1

MRSA 43300 = assay type: cell-based, methicillin-resistant S. aureus
Method: as §1

B. subtilis 63501 = assay type: cell-based, Bacillus subtilis
Method: as §1

E. faecalis 29212 = assay type: cell-based, Enterococcus faecalis
Method: as §1

[4] = test system: Listeria monocytogenes CGMCC 1.1075; assay type: cell-based
Method: as §1

E. coli ATCC 25922 = assay: Salt sensitivity assay (MIC); assay type: cell-based, Escherichia coli; details: for MIC, FeCl3: 4 μM FeCl3; for MIC, NH4Cl: 6 μM NH4Cl; for MIC, ZnCl2: 8 μM ZnCl2; for MIC, MgCl2: 1 mM MgCl2; for MIC, CaCl2: 2 mM CaCl2; for MIC, KCl: 4.5 mM KCl; for MIC, NaCl: 150 mM NaCl; for MIC, Control: no added salt, three independent assays
Method: as §1
(§3) The salt sensitivities of the peptides were determined. E. coli ATCC 25922 and S. aureus ATCC 29213 were incubated in the presence of various ultimate concentrations of physiological salts (150 mM NaCl, 4.5 mM KCl, 6 μM NH4Cl, 8 μM ZnCl2, 1 mM MgCl2, 2mM CaCl2, and 4 μM FeCl3) according to our previous protocol ([Yang et al., 2019]). These tests were performed under the MICs, and three independent assays were performed.

S. aureus 29213 [5] = assay: Salt sensitivity assay (MIC); assay type: cell-based, Staphylococcus aureus; details: for MIC, FeCl3: 4 μM FeCl3; for MIC, NH4Cl: 6 μM NH4Cl; for MIC, ZnCl2: 8 μM ZnCl2; for MIC, MgCl2: 1 mM MgCl2; for MIC, CaCl2: 2 mM CaCl2; for MIC, KCl: 4.5 mM KCl; for MIC, NaCl: 150 mM NaCl; for MIC, Control: no added salt, three independent assays
Method: as §1, §3

Gram-negative bacteria [6] = details: geometric mean of MBCs, 9 Gram-negative strains (Table 2)
Gram-positive bacteria [7] = details: geometric mean of MBCs, 7 Gram-positive strains (Table 2)
[8] = test system: all of the tested bacterial strains; assay: Geometric mean of MICs, all tested bacterial strains; assay type: cell-based
Excerpt: The antimicrobial activity of AMPs is the most decisive index for evaluating the clinical application of antimicrobial drugs. Many antimicrobial agents inhibit bacterial growth rather than kill the bacteria quickly, and long-term infections are pathogens that are not completely killed, which results in bacterial severe drug resistance. […] The geometric mean (GM) values of the MICs/MBCs of the two series across all of the tested bacterial strains are represented in Table 3, which depicts the average bacteriostatic/bactericidal level of a peptide.
as §1

[9] = MHB, 24 h 37°C, 95% growth inhibition
[10] = value in brackets, >99.9% of cells killed
[11] = geometric mean of MICs (Table 3)
[12] = therapeutic index TI = MHC/GM MIC

In the case of Polymyxin B [reference compound], the MIC (E. coli 25922; MHB, 0.5–1 × 10^6 CFU/mL, 24 h 37°C, lowest concentration inhibiting 95% of growth (A492), more than 3 repeats) is reported as 4 µM, the MBC (E. coli 25922; value in brackets, agar plating, lowest concentration killing >99.9% of cells) is reported as 8 µM and the MIC (E. coli O78; [9]) is reported as 2 µM. For the same substance, the MBC (E. coli O78; [10]) was 4 µM, the MIC (E. coli UB1005; [9]) was 2 µM and the MBC (E. coli UB1005; [10]) was 4 µM. It also gave an MIC (S. typhimurium 14028; [9]) of 4 µM, an MBC (S. typhimurium 14028; [10]) of 8 µM and an MIC (S. typhimurium 7731; [9]) of 2 µM. It also gave an MBC (S. typhimurium 7731; [10]) of 4 µM, an MIC (S. pullorum 7913; [9]) of 4 µM and an MBC (S. pullorum 7913; [10]) of 8 µM. The MIC (P. aeruginosa 27853; [9]) was 8 µM, the MBC (P. aeruginosa 27853; [10]) was 16 µM and the MIC (E. coli K88; [9]) was 2 µM. For the same substance, the MBC (E. coli K88; [10]) was 4 µM, the MIC (E. coli K99; [9]) was 2 µM and the MBC (E. coli K99; [10]) was 4 µM. The “GM MIC” value (Gram-negative bacteria [1]; geometric mean of MICs, 9 Gram-negative strains (Table 2)) was 2.94 µM, the “GM MIC” value (Gram-positive bacteria [2]; geometric mean of MICs, 7 Gram-positive strains (Table 2)) was 4.42 µM and the MIC (S. aureus 25923; [9]) was 2 µM. It also gave an MBC (S. aureus 25923; [10]) of 4 µM, an MIC (S. aureus 29213 [3]; [9]) of 4 µM and an MBC (S. aureus 29213 [3]; [10]) of 8 µM. The MIC (S. epidermidis 12228; [9]) was 2 µM, the MBC (S. epidermidis 12228; [10]) was 4 µM and the MIC (MRSA 43300; [9]) was 2 µM. It also gave an MBC (MRSA 43300; [10]) of 4 µM, an MIC (B. subtilis 63501; [9]) of 1 µM and an MBC (B. subtilis 63501; [10]) of 2 µM. The MIC (E. faecalis 29212; [9]) was 32 µM, the MBC (E. faecalis 29212; [10]) was greater than 64 µM and the MIC [4, 9] was 32 µM. The MBC [4, 10] was greater than 64 µM, the MIC, FeCl3 (E. coli ATCC 25922) was 4 µM and the MIC, NH4Cl (E. coli ATCC 25922) was 4 µM. It also gave an MIC, ZnCl2 (E. coli ATCC 25922) of 4 µM, an MIC, MgCl2 (E. coli ATCC 25922) of 4 µM and an MIC, CaCl2 (E. coli ATCC 25922) of 8 µM. For the same substance, the MIC, KCl (E. coli ATCC 25922) was 8 µM, the MIC, NaCl (E. coli ATCC 25922) was 8 µM and the MIC, Control (E. coli ATCC 25922) was 4 µM. The MIC, FeCl3 (S. aureus 29213 [5]) was 16 µM, the MIC, NH4Cl (S. aureus 29213 [5]) was 16 µM and the MIC, ZnCl2 (S. aureus 29213 [5]) was 16 µM. For the same substance, the MIC, MgCl2 (S. aureus 29213 [5]) was 16 µM, the MIC, CaCl2 (S. aureus 29213 [5]) was 64 µM and the MIC, KCl (S. aureus 29213 [5]) was 16 µM. The MIC, NaCl (S. aureus 29213 [5]) was 32 µM, the MIC, Control (S. aureus 29213 [5]) was 16 µM and the “GM MBC” value (Gram-negative bacteria [6]) was 5.88 µM. For the same substance, the “GM MBC” value (Gram-positive bacteria [7]) was 10.77 µM.
In the case of WRRRWWWWR-NH2 [W6], the MBC (E. coli 25922; 25922, 24 h) is reported as 8 µM, the MIC (E. coli 25922; 25922, 24 h) is reported as 4 µM and the MBC (E. coli O78; O78, 24 h) is reported as 8 µM. It also gave an MIC (E. coli O78; O78, 24 h) of 4 µM, an MBC (E. coli UB1005; UB1005, 24 h) of 8 µM and an MIC (E. coli UB1005; UB1005, 24 h) of 4 µM. It also gave an MBC (S. typhimurium 14028; 14028, 24 h) of 16 µM, an MIC (S. typhimurium 14028; 14028, 24 h) of 8 µM and an MBC (S. typhimurium 7731; 7731, 24 h) of 16 µM. For the same substance, the MIC (S. typhimurium 7731; 7731, 24 h) was 8 µM, the MBC (S. pullorum 7913; 7913, 24 h) was 16 µM and the MIC (S. pullorum 7913; 7913, 24 h) was 8 µM. For the same substance, the MBC (P. aeruginosa 27853; 27853, 24 h) was 16 µM, the MIC (P. aeruginosa 27853; 27853, 24 h) was 8 µM and the “GM, Gram-negative bacteria” value (Gram-negative bacteria [1]; [11]) was 5.04 µM. For the same substance, the “TI, Gram-negative bacteria” value (Gram-negative bacteria [1]; [12]) was 50.79, the “GM, Gram-positive bacteria” value (Gram-positive bacteria [2]; [11]) was 2.21 µM and the “TI, Gram-positive bacteria” value (Gram-positive bacteria [2]; [12]) was 115.84. It also gave an MBC (S. aureus 25923; 25923, 24 h) of 4 µM, an MIC (S. aureus 25923; 25923, 24 h) of 2 µM and an MBC (S. aureus 29213 [3]; 29213, 24 h) of 4 µM. The MIC (S. aureus 29213 [3]; 29213, 24 h) was 2 µM, the MBC (S. epidermidis 12228; 12228, 24 h) was 8 µM and the MIC (S. epidermidis 12228; 12228, 24 h) was 4 µM. The MBC (MRSA 43300; 43300, 24 h) was 4 µM, the MIC (MRSA 43300; 43300, 24 h) was 2 µM and the MBC (B. subtilis 63501; 63501, 24 h) was 2 µM. The MIC (B. subtilis 63501; 63501, 24 h) was 1 µM, the MBC (E. faecalis 29212; 29212, 24 h) was 8 µM and the MIC (E. faecalis 29212; 29212, 24 h) was 4 µM. For the same substance, the MBC ([4]; CGMCC 1.1075, 24 h) was 4 µM, the MIC ([4]; CGMCC 1.1075, 24 h) was 2 µM and the “GM, All” value ([8]; geometric mean of MICs across all tested strains) was 3.51 µM. The “TI, All” value [8, 12] was 72.93, the MIC, FeCl3 (E. coli ATCC 25922) was 4 µM and the MIC, NH4Cl (E. coli ATCC 25922) was 2 µM. It also gave an MIC, ZnCl2 (E. coli ATCC 25922) of 4 µM, an MIC, MgCl2 (E. coli ATCC 25922) of 8 µM and an MIC, CaCl2 (E. coli ATCC 25922) of 16 µM. It also gave an MIC, KCl (E. coli ATCC 25922) of 8 µM, an MIC, NaCl (E. coli ATCC 25922) of 16 µM and an MIC, Control (E. coli ATCC 25922) of 4 µM. It also gave an MIC, FeCl3 (S. aureus 29213 [5]) of 2 µM, an MIC, NH4Cl (S. aureus 29213 [5]) of 2 µM and an MIC, ZnCl2 (S. aureus 29213 [5]) of 2 µM. For the same substance, the MIC, MgCl2 (S. aureus 29213 [5]) was 4 µM, the MIC, CaCl2 (S. aureus 29213 [5]) was 4 µM and the MIC, KCl (S. aureus 29213 [5]) was 2 µM. It also gave an MIC, NaCl (S. aureus 29213 [5]) of 4 µM and an MIC, Control (S. aureus 29213 [5]) of 2 µM.

From publication PMC7725003, “Systematically Studying the Optimal Amino Acid Distribution Patterns of the Amphiphilic Structure by Using the Ultrashort Amphiphiles” (Frontiers in Microbiology, 2020)
